Patent US9156810B2, “Treatment of inflammatory bowel disease” (ALLERGAN, INC., priority 2003, dated 2015)

Experiments:
hEP4 [1] = molecular target: T1, hEP4 (Homo sapiens (Human), UniProt P35408); experiment: FLIPR calcium signal, HEK-293(EBNA) cells expressing hEP4/Gqs5; assay type: cell-based; details: bottom number in Table 2, read-out: hEP4 functional EC50
Protocol: (§1) HEK-293(EBNA) cells, stably expressing one type or subtype of recombinant human prostaglandin receptors (prostaglandin receptors expressed: hDP/Gqs5; hEP1; hEP2/Gqs5; hEP3A/Gqi5; hEP4/Gqs5; hFP; hIP; hTP), were cultured in 100 mm culture dishes in high-glucose DMEM medium containing 10% fetal bovine serum, 2 mM 1-glutamine, 250 μg/ml geneticin (G418) and 200 μg/ml hygromycin B as selection markers, and 100 units/ml penicillin G, 100 μg/m streptomycin and 0.25 μg/m amphotericin B.
(§2) Cells were seeded at a density of 5×10^4 cells per well in Biocoat® Poly-D-lysine-coated black-wall, clear-bottom 96-well plates (Becton-Dickinson) and allowed to attach overnight in an incubator at 37° C. Cells were then washed two times with HBSS-HEPES buffer (Hanks Balanced Salt Solution without bicarbonate and phenol red, 20 mM HEPES, pH 7.4) using a Denley Cellwash plate washer (Labsystems). After 45 minutes of dye-loading in the dark, using the calcium-sensitive dye Fluo-4 AM at a final concentration of 2 μM, plates were washed four times with HBSS-HEPES buffer to remove excess dye leaving 100 μl in each well. Plates were re-equilibrated to 37° C. for a few minutes.
Cells were excited with an Argon laser at 488 nm, and emission was measured through a 510-570 nm bandwidth emission filter (FLIPR™, Molecular Devices, Sunnyvale, Calif.). […] The peak increase in fluorescence intensity was recorded for each well. On each plate, four wells each served as negative (HBSS-HEPES buffer) and positive controls (standard agonists: BW245C (hDP); PGE2 (hEP1; hEP2/Gqs5; hEP3A/Gqi5; hEP4/Gqs5); PGF2 (hFP); carbacyclin (hIP); U-46619 (hTP), depending on receptor). The peak fluorescence change in each drug-containing well was then expressed relative to the controls.
(§3) Compounds were tested in a high-throughput (HTS) or concentration-response (CoRe) format. In the HTS format, forty-four compounds per plate were examined in duplicates at a concentration of 10^−5 M. To generate concentration-response curves, four compounds per plate were tested in duplicates in a concentration range between 10^−5 and 10^−11 M. The duplicate values were averaged.

hEP3D = hEP3D (Homo sapiens (Human), UniProt P43115); experiment: Radioligand binding ([3H]PGE2), HEK-293 cell membranes expressing EP3 receptor; details: top number in Table 2
Protocol: (§4) HEK-293 cells stably expressing the human or feline FP receptor, or EP1, EP2, EP3, or EP4 receptors were washed with TME buffer, scraped from the bottom of the flasks, and homogenized for 30 sec using a Brinkman PT 10/35 polytron. TME buffer was added to achieve a final 40 ml volume in the centrifuge tubes (the composition of TME is 100 mM TRIS base, 20 mM MgCl2, […]; 10N HCl is added to achieve a pH of 7.4).
(§5) The cell homogenate was centrifuged at 19000 r.p.m. for 20 min at 4° C. using a Beckman Ti-60 rotor. The resultant pellet was resuspended in TME buffer to give a final 1 mg/ml protein concentration, as determined by Biorad assay. Radioligand binding competition assays vs. [^3H-]17-phenyl PGF2α, (5 nM) were performed in a 100 μl volume for 60 min. Binding reactions were started by adding plasma membrane fraction. The reaction was terminated by the addition of 4 ml ice-cold TRIS-HCl buffer and rapid filtration through glass fiber GF/B filters using a Brandel cell harvester. The filters were washed 3 times with ice-cold buffer and oven dried for one hour. Non-specific binding was determined with 10 uM unlabeled 17-phenyl PGF2α.
(§6) [^3H-] PGE2 (5 nM; specific activity 180 Ci mmol) was used as the radioligand for EP receptors. Binding studies employing EP1, EP2, EP3, EP4 were performed in duplicate in at least three separate experiments. A 200 μl assay volume was used. Incubations were for 60 min at 25° C. and were terminated by the addition of 4 ml of ice-cold 50 mM TRIS-HCl, followed by rapid filtration through Whatman GF/B filters and three additional 4 ml washes in a cell harvester (Brandel). Non-specific binding determined with 10^−5M of unlabeled PGE2.

hEP1 = hEP1 (Homo sapiens (Human), UniProt P34995); experiment: Radioligand binding ([3H]PGE2), HEK-293 cell membranes expressing EP1 receptor; details: top number in Table 2
Protocol: as §4, §5, §6

hEP4 [2] = molecular target: T1, hEP4; experiment: Radioligand binding ([3H]PGE2), HEK-293 cell membranes expressing EP4 receptor; details: top number in Table 2
Protocol: as §4, §5, §6

hEP3A = hEP3A (Homo sapiens (Human), UniProt P43115); experiment: FLIPR calcium signal, HEK-293(EBNA) cells expressing hEP3A/Gqi5; assay type: cell-based; details: bottom number in Table 2, read-out: hEP3A functional EC50
Protocol: as §1, §2
Cells were excited with an Argon laser at 488 nm, and emission was measured through a 510-570 nm bandwidth emission filter (FLIPR™, Molecular Devices, Sunnyvale, Calif.). Drug solution was added in a 50 μl volume to each well to give the desired final concentration. The peak increase in fluorescence intensity was recorded for each well. On each plate, four wells each served as negative (HBSS-HEPES buffer) and positive controls (standard agonists: BW245C (hDP); PGE2 (hEP1; hEP2/Gqs5; hEP3A/Gqi5; hEP4/Gqs5); PGF2 (hFP); carbacyclin (hIP); U-46619 (hTP), depending on receptor). The peak fluorescence change in each drug-containing well was then expressed relative to the controls.
as §3, with “averaged. In either, HTS or CoRe format each compound was tested on at least 3 separate plates using cells from different passages to give an n≧3.” for “averaged.”

hTP = hTP (Homo sapiens (Human), UniProt P21731); experiment: Table 2 top number, hTP (radioligand binding per footnote); details: top number in Table 2
Chain of hTP (P21731 whole entry): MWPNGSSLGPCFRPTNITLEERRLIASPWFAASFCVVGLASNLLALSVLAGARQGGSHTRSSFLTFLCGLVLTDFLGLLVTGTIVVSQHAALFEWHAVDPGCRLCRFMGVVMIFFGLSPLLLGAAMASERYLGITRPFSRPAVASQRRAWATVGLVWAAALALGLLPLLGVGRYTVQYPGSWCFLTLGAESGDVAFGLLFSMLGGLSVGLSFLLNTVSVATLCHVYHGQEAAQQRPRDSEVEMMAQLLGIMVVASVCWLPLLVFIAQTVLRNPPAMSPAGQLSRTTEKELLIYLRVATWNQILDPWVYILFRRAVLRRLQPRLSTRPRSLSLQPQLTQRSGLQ

Chain of hEP1 (P34995 whole entry): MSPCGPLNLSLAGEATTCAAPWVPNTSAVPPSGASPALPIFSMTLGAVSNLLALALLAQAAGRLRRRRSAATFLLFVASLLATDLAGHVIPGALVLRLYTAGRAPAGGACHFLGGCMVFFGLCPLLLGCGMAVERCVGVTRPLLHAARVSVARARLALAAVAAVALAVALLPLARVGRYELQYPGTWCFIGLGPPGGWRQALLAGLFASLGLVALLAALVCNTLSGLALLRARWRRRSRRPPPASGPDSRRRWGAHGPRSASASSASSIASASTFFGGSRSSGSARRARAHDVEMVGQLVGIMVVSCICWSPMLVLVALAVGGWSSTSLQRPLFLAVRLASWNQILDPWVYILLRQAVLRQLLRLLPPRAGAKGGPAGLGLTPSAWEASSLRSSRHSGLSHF
T1 sequence (P35408 whole entry, looked up): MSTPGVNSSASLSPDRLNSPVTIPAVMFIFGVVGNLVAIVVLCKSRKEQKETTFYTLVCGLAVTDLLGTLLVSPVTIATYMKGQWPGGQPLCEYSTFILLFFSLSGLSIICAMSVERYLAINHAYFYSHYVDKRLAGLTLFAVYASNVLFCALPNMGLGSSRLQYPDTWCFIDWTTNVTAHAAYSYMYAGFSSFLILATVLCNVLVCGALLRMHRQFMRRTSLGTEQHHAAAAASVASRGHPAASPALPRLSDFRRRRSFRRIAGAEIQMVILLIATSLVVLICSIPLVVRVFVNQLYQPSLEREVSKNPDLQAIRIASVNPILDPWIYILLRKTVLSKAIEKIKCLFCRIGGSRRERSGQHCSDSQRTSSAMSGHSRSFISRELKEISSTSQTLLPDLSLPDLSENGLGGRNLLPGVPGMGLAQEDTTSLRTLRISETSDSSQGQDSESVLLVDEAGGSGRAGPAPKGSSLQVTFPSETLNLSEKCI
Chain of hEP3D (P43115 other isoform, or with tags, fused parts or gaps): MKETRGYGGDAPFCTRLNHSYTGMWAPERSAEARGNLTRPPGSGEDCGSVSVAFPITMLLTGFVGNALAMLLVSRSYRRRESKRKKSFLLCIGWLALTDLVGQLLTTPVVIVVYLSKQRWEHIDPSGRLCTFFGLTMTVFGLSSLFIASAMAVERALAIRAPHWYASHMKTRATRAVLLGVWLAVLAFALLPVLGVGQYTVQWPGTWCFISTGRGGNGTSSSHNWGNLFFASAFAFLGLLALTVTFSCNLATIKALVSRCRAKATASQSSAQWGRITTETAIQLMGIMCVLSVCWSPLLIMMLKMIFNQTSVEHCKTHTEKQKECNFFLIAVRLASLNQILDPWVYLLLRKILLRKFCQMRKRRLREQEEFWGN
Chain of hEP3A (P43115 whole entry): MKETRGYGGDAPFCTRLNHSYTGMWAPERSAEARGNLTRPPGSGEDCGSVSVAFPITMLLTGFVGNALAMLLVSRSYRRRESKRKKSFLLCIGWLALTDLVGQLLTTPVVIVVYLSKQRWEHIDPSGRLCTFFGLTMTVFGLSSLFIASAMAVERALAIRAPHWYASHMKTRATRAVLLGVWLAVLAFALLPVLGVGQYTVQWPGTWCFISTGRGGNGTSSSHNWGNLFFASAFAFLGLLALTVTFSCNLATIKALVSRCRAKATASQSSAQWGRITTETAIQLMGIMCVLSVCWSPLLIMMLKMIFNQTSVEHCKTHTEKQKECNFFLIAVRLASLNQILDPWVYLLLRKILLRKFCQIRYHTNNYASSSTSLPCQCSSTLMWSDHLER

## CC1(C)C(=O)[C@H](C/C=C\CCCC(=O)O)[C@@H](/C=C/C(O)Cc2cc3ccccc3s2)[C@@H]1O (single isomer, unassigned) [Compound 54]
hEP4 [1]
  EC50: 0.3 nM
hEP3D
  IC50: 4700 nM
hEP1
  IC50: 308 nM
hEP4 [2]
  IC50: 20 nM

## COC(=O)CCC/C=C\C[C@H]1C(=O)C(C)(C)[C@@H](O)[C@@H]1/C=C/C(O)Cc1cc2ccccc2s1 (single isomer, unassigned) [Compound 71]
hEP4 [2]
  IC50: 10000 nM

## COC(=O)CCC/C=C\C[C@H]1C(=O)C(C)(C)[C@@H](O)[C@@H]1/C=C/C(O)Cc1cc2ccccc2s1 (single isomer, unassigned) [Compound 70]
hEP3D
  hEP3D radioligand binding IC50: > 10000 nM
hEP4 [2]
  IC50: 219 nM

## COC(=O)CCC/C=C\C[C@H]1C(=O)C(C)(C)[C@@H](O)[C@@H]1/C=C/C(O)CCc1sc2ccccc2c1Cl (single isomer, unassigned) [Compound 39]
hEP4 [1]
  EC50: 141 nM
hEP4 [2]
  IC50: 2300 nM

## CC1(C)C(=O)[C@H](C/C=C\CCCC(=O)O)[C@@H](/C=C/C(O)Cc2ccccc2)[C@@H]1O (single isomer, unassigned) [Compound 47]
hEP3D
  hEP3D radioligand binding IC50: > 10000 nM
hEP1
  IC50: 963 nM
hEP4 [2]
  IC50: 76 nM

## COC(=O)CCC/C=C\C[C@H]1C(=O)C(C)(C)[C@@H](O)[C@@H]1/C=C/C(O)Cc1ccccc1 (single isomer, unassigned) [Compound 48]
hEP4 [2]
  IC50: 45 nM

## CC1(C)C(=O)[C@H](C/C=C\CCCC(=O)NCCO)[C@@H](/C=C/C(O)Cc2cc3ccccc3s2)[C@@H]1O (single isomer, unassigned) [Compound 64]
hEP4 [2]
  IC50: 4150 nM

## CC1(C)C(=O)[C@H](C/C=C\CCCC(=O)O)[C@@H](/C=C/C(O)Cc2cc3ccccc3s2)[C@@H]1O (single isomer, unassigned) [Compound 55]
hEP4 [1]
  EC50: 38 nM
hEP3D
  hEP3D radioligand binding IC50: > 10000 nM
hEP1
  IC50: 758 nM
hEP4 [2]
  IC50: 310 nM

## COC(=O)CSCCCS[C@H]1C(=O)C(C)(C)[C@@H](O)[C@@H]1/C=C/C(O)CCc1sc2ccccc2c1Cl (single isomer, unassigned) [Compound 22]
hEP4 [1]
  EC50: 30 nM
hEP4 [2]
  IC50: 300 nM

## CC1(C)C(=O)[C@H](CC#CCCCC(=O)O)[C@@H](/C=C/C(O)Cc2cc3ccccc3s2)[C@@H]1O (single isomer, unassigned) [Compound 74]
hEP1
  IC50: 2380 nM
hEP4 [2]
  IC50: 256 nM

## CCN(CC)C(=O)CCC/C=C\C[C@H]1C(=O)C(C)(C)[C@@H](O)[C@@H]1/C=C/C(O)Cc1cc2ccccc2s1 (single isomer, unassigned) [Compound 63]
hEP1
  hEP1 radioligand binding IC50: > 10000 nM
hEP4 [2]
  IC50: 478 nM

## CCCCC[C@H](O)/C=C/[C@@H]1[C@@H](CC#CCCCC(=O)OC)C(=O)C(C)(C)[C@H]1O [Compound 42, 7-[(1R,4S,5R)-4-Hydroxy-5-((E)-(S)-3-hydroxy-oct-1-enyl)-3,3-dimethyl-2-oxo-cyclopentyl]-hept-5-ynoic acid methyl ester]
hEP3A
  EC50: 559 nM
hEP3D
  IC50: > 10000 nM
hEP4 [2]
  IC50: > 10000 nM

## CC1(C)C(=O)[C@H](C/C=C\CCCC(=O)O)[C@@H](/C=C/C(O)CCc2sc3ccccc3c2Cl)[C@@H]1O (single isomer, unassigned) [Compound 40]
hEP4 [1]
  EC50: 0.3 nM
hTP
  hTP radioligand binding IC50: > 10000 nM
hEP4 [2]
  IC50: 200 nM

## CC1(C)C(=O)[C@H](C/C=C\CCCC(=O)O)[C@@H](/C=C/C(O)CCc2ccccc2)[C@@H]1O (single isomer, unassigned) [Compound 52]
hEP4 [1]
  EC50: 18 nM
hEP3D
  IC50: 60 nM
hEP1
  IC50: 27 nM
hEP4 [2]
  IC50: 72 nM

## COC(=O)CCCC#CC[C@H]1C(=O)C(C)(C)[C@@H](O)[C@@H]1/C=C/C(O)Cc1cc2ccccc2s1 (single isomer, unassigned) [Compound 72]
hEP4 [2]
  hEP4 radioligand binding IC50: > 10000 nM

## CC1(C)C(=O)[C@H](SCCCSCC(=O)O)[C@@H](/C=C/C(O)CCc2sc3ccccc3c2Cl)[C@@H]1O (single isomer, unassigned) [Compound 24]
hEP4 [1]
  EC50: 0.1 nM
hEP3D
  hEP3D radioligand binding IC50: >>10K
hEP4 [2]
  IC50: 26 nM

## COC(=O)CCC/C=C\C[C@H]1C(=O)C(C)(C)[C@@H](O)[C@@H]1/C=C/C(O)CCc1ccccc1 (single isomer, unassigned) [Compound 51]
hEP4 [2]
  IC50: 700 nM

## COC(=O)CCC/C=C\C[C@H]1C(=O)C(C)(C)[C@@H](O)[C@@H]1/C=C/C(O)CCc1sc2ccccc2c1Cl (single isomer, unassigned) [Compound 38]
hEP4 [1]
  EC50: 269 nM
hEP4 [2]
  IC50: 2700 nM

## CC1(C)C(=O)[C@H](C/C=C\CCCC(=O)O)[C@@H](/C=C/C(O)CCc2ccccc2)[C@@H]1O (single isomer, unassigned) [Compound 53]
hEP4 [1]
  EC50: 6.4 nM
hEP3D
  IC50: 1860 nM
hEP1
  IC50: 1020 nM
hEP4 [2]
  IC50: 59 nM

## CC1(C)C(=O)[C@H](C/C=C\CCCC(N)=O)[C@@H](/C=C/C(O)Cc2cc3ccccc3s2)[C@@H]1O (single isomer, unassigned) [Compound 68]
hTP
  hTP radioligand binding IC50: > 10000 nM
hEP4 [2]
  IC50: 678 nM

## CCNC(=O)CCC/C=C\C[C@H]1C(=O)C(C)(C)[C@@H](O)[C@@H]1/C=C/C(O)Cc1cc2ccccc2s1 (single isomer, unassigned) [Compound 60]
hEP4 [2]
  hEP4 radioligand binding IC50: > 10000 nM

## COC(=O)CCC/C=C\C[C@H]1C(=O)C(C)(C)[C@@H](O)[C@@H]1/C=C/C(O)Cc1ccccc1 (single isomer, unassigned) [Compound 49]
hEP4 [2]
  IC50: 1400 nM

## CC1(C)C(=O)[C@H](C/C=C\CCCC(N)=O)[C@@H](/C=C/C(O)Cc2cc3ccccc3s2)[C@@H]1O (single isomer, unassigned) [Compound 69]
hTP
  hTP radioligand binding IC50: > 10000 nM
hEP4 [2]
  IC50: 5000 nM

## CC1(C)C(=O)[C@H](SCCCSCC(=O)O)[C@@H](/C=C/C(O)CCc2sc3ccccc3c2Cl)[C@@H]1O (single isomer, unassigned) [Compound 23]
hEP4 [1]
  EC50: 0.1 nM
hTP
  hTP radioligand binding IC50: > 10000 nM
hEP3D
  hEP3D radioligand binding IC50: > 10000 nM
hEP4 [2]
  IC50: 44 nM

## CCN(CC)C(=O)CCC/C=C\C[C@H]1C(=O)C(C)(C)[C@@H](O)[C@@H]1/C=C/C(O)Cc1cc2ccccc2s1 (single isomer, unassigned) [Compound 62]
hEP4 [2]
  IC50: 832 nM

## CC1(C)C(=O)[C@H](CC#CCCCC(=O)O)[C@@H](/C=C/C(O)Cc2cc3ccccc3s2)[C@@H]1O (single isomer, unassigned) [Compound 75]
hTP
  hTP radioligand binding IC50: > 10000 nM
hEP1
  IC50: 2050 nM
hEP4 [2]
  hEP4 radioligand binding IC50: > 10000 nM
